Measured values as given in patent US20250145665A1, “MACROCYCLIC PEPTIDES USEFUL AS MODULATORS OF TNF ALPHA” (Bristol-Myers Squibb Company, priority 2023, published 2025).
Positions of bridges follow the written chain, without caps; N, C: chain ends. Non-standard residues stand in square brackets, D forms with d. Residues, ends and D or L forms follow the SMILES beside them. Bip(4'-COOH) = N[C@@H](Cc1ccc(-c2ccc(C(=O)O)cc2)cc1)C(=O)O; Phe(4-CF3) = N[C@@H](Cc1ccc(C(F)(F)F)cc1)C(=O)O; Ala(morpholin-4-yl) = N[C@@H](CN1CCOCC1)C(=O)O; Phe(3-CONH2) = NC(=O)c1cccc(C[C@H](N)C(=O)O)c1; Phe(4-CONH2) = NC(=O)c1ccc(C[C@H](N)C(=O)O)cc1; Phe(4-CH2NH2) = NCc1ccc(C[C@H](N)C(=O)O)cc1; Bip = N[C@@H](Cc1ccc(-c2ccccc2)cc1)C(=O)O; Phe(4-Me) = Cc1ccc(C[C@H](N)C(=O)O)cc1; Bta = N[C@@H](Cc1csc2ccccc12)C(=O)O; h4Pal = N[C@@H](CCc1ccncc1)C(=O)O; hPhe = N[C@@H](CCc1ccccc1)C(=O)O; Tic = O=C(O)[C@@H]1Cc2ccccc2CN1; Aze = O=C(O)[C@@H]1CCN1; Sar = CNCC(=O)O

Biological target: TNFα (Homo sapiens, UniProt P01375)
Sequence (P01375 77-233 limits assumed): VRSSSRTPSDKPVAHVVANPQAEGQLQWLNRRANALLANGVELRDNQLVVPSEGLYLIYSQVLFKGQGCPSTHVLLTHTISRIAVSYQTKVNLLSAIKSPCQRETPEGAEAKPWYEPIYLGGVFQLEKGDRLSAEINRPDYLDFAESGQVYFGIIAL
Assay: TNF-Induced HEK-Blue Assay
Type: cell-based
Settings: HEK-Blue-CD40L cells, NF-kB-driven secreted alkaline phosphatase reporter; TNFα 0.5 ng/ml; 18 h; read-out: TNF induced HEK-Blue assay IC50 value

| Compound | IC50 [nM] |
| --- | --- |
| CC(C)C[C@@H]1NC(=O)[C@H](Cc2ccc(O)cc2)NC(=O)[C@H](C(C)C)NC(=O)[C@@H]2CCN2C(=O)[C@H](C(C)C)NC(=O)[C@@H](CCCNC(=N)N)NC(=O)[C@H](CC(=O)O)NC(=O)[C@H](Cc2ccc(O)cc2)NC(=O)CN(C)C(=O)[C@H](Cc2ccc(-c3ccccc3)cc2)NC(=O)[C@H](Cc2ccc(-c3ccc(C(=O)O)cc3)cc2)NC(=O)[C@H](CN2CCOCC2)NC(=O)CSC[C@@H](C(=O)NCC(N)=O)NC1=O [Example 147] ({CH2CO}-[Ala(morpholin-4-yl)][Bip(4'-COOH)][Bip][Sar]YD[dR]V[Aze]VYLCG-NH2; thioether N-13) | < 50 |
| CC(C)C[C@@H]1NC(=O)[C@H](Cc2ccc(O)cc2)NC(=O)[C@H](C(C)C)NC(=O)[C@@H]2Cc3ccccc3CN2C(=O)[C@H](C(C)C)NC(=O)[C@@H](CCCNC(=N)N)NC(=O)[C@H](CC(=O)O)NC(=O)[C@H](Cc2ccc(O)cc2)NC(=O)CN(C)C(=O)[C@H](Cc2ccc(-c3ccccc3)cc2)NC(=O)[C@H](Cc2ccc(-c3ccc(C(=O)O)cc3)cc2)NC(=O)[C@H](CN2CCOCC2)NC(=O)CSC[C@@H](C(=O)NCC(N)=O)NC1=O [Example 148] ({CH2CO}-[Ala(morpholin-4-yl)][Bip(4'-COOH)][Bip][Sar]YD[dR]V[Tic]VYLCG-NH2; thioether N-13) | < 50 |
| CC(C)C[C@@H]1NC(=O)[C@H](Cc2ccc(O)cc2)NC(=O)[C@H](CC(C)C)NC(=O)[C@@H]2CCCN2C(=O)[C@H](C(C)C)NC(=O)[C@@H](CCCNC(=N)N)NC(=O)[C@H](CC(=O)O)NC(=O)[C@H](Cc2ccc(O)cc2)NC(=O)CN(C)C(=O)[C@H](Cc2ccc(-c3ccccc3)cc2)NC(=O)[C@H](Cc2ccc(-c3ccccc3)cc2)NC(=O)[C@H](CN2CCOCC2)NC(=O)CSC[C@@H](C(=O)NCC(N)=O)NC1=O [Example 149] ({CH2CO}-[Ala(morpholin-4-yl)][Bip][Bip][Sar]YD[dR]VPLYLCG-NH2; thioether N-13) | 50 to 200 |
| CC(C)C[C@@H]1NC(=O)[C@H](Cc2ccc(CN)cc2)NC(=O)[C@H](C(C)C)NC(=O)[C@@H]2CCCN2C(=O)[C@H](C(C)C)NC(=O)[C@@H](CCCNC(=N)N)NC(=O)[C@H](CC(=O)O)NC(=O)[C@H](Cc2ccc(O)cc2)NC(=O)CN(C)C(=O)[C@H](Cc2ccc(-c3ccccc3)cc2)NC(=O)[C@H](Cc2ccc(-c3ccccc3)cc2)NC(=O)[C@H](CN2CCOCC2)NC(=O)CSC[C@@H](C(=O)NCC(N)=O)NC1=O [Example 150] ({CH2CO}-[Ala(morpholin-4-yl)][Bip][Bip][Sar]YD[dR]VPV[Phe(4-CH2NH2)]LCG-NH2; thioether N-13) | 50 to 200 |
| CC(C)C[C@@H]1NC(=O)[C@H](Cc2ccc(C(N)=O)cc2)NC(=O)[C@H](C(C)C)NC(=O)[C@@H]2CCCN2C(=O)[C@H](C(C)C)NC(=O)[C@@H](CCCNC(=N)N)NC(=O)[C@H](CC(=O)O)NC(=O)[C@H](Cc2ccc(O)cc2)NC(=O)CN(C)C(=O)[C@H](Cc2ccc(-c3ccccc3)cc2)NC(=O)[C@H](Cc2ccc(-c3ccccc3)cc2)NC(=O)[C@H](CN2CCOCC2)NC(=O)CSC[C@@H](C(=O)NCC(N)=O)NC1=O [Example 151] ({CH2CO}-[Ala(morpholin-4-yl)][Bip][Bip][Sar]YD[dR]VPV[Phe(4-CONH2)]LCG-NH2; thioether N-13) | 50 to 200 |
| Cc1ccc(C[C@@H]2NC(=O)[C@H](C(C)C)NC(=O)[C@@H]3CCCN3C(=O)[C@H](C(C)C)NC(=O)[C@@H](CCCNC(=N)N)NC(=O)[C@H](CC(=O)O)NC(=O)[C@H](Cc3ccc(O)cc3)NC(=O)CN(C)C(=O)[C@H](Cc3ccc(-c4ccccc4)cc3)NC(=O)[C@H](Cc3ccc(-c4ccccc4)cc3)NC(=O)[C@H](CN3CCOCC3)NC(=O)CSC[C@@H](C(=O)NCC(N)=O)NC(=O)[C@H](CC(C)C)NC2=O)cc1 [Example 152] ({CH2CO}-[Ala(morpholin-4-yl)][Bip][Bip][Sar]YD[dR]VPV[Phe(4-Me)]LCG-NH2; thioether N-13) | 50 to 200 |
| CC(C)C[C@@H]1NC(=O)[C@H](CCc2ccccc2)NC(=O)[C@H](C(C)C)NC(=O)[C@@H]2CCCN2C(=O)[C@H](C(C)C)NC(=O)[C@@H](CCCNC(=N)N)NC(=O)[C@H](CC(=O)O)NC(=O)[C@H](Cc2ccc(O)cc2)NC(=O)CN(C)C(=O)[C@H](Cc2ccc(-c3ccccc3)cc2)NC(=O)[C@H](Cc2ccc(-c3ccccc3)cc2)NC(=O)[C@H](CN2CCOCC2)NC(=O)CSC[C@@H](C(=O)NCC(N)=O)NC1=O [Example 154] ({CH2CO}-[Ala(morpholin-4-yl)][Bip][Bip][Sar]YD[dR]VPV[hPhe]LCG-NH2; thioether N-13) | 50 to 200 |
| CC(C)C[C@@H]1NC(=O)[C@H](CCc2ccncc2)NC(=O)[C@H](C(C)C)NC(=O)[C@@H]2CCCN2C(=O)[C@H](C(C)C)NC(=O)[C@@H](CCCNC(=N)N)NC(=O)[C@H](CC(=O)O)NC(=O)[C@H](Cc2ccc(O)cc2)NC(=O)CN(C)C(=O)[C@H](Cc2ccc(-c3ccccc3)cc2)NC(=O)[C@H](Cc2ccc(-c3ccccc3)cc2)NC(=O)[C@H](CN2CCOCC2)NC(=O)CSC[C@@H](C(=O)NCC(N)=O)NC1=O [Example 155] ({CH2CO}-[Ala(morpholin-4-yl)][Bip][Bip][Sar]YD[dR]VPV[h4Pal]LCG-NH2; thioether N-13) | < 50 |
| CC(C)C[C@@H]1NC(=O)[C@H](Cc2cccc(C(N)=O)c2)NC(=O)[C@H](C(C)C)NC(=O)[C@@H]2CCCN2C(=O)[C@H](C(C)C)NC(=O)[C@@H](CCCNC(=N)N)NC(=O)[C@H](CC(=O)O)NC(=O)[C@H](Cc2ccc(O)cc2)NC(=O)CN(C)C(=O)[C@H](Cc2ccc(-c3ccccc3)cc2)NC(=O)[C@H](Cc2ccc(-c3ccccc3)cc2)NC(=O)[C@H](CN2CCOCC2)NC(=O)CSC[C@@H](C(=O)NCC(N)=O)NC1=O [Example 156] ({CH2CO}-[Ala(morpholin-4-yl)][Bip][Bip][Sar]YD[dR]VPV[Phe(3-CONH2)]LCG-NH2; thioether N-13) | 50 to 200 |
| CC(C)C[C@@H]1NC(=O)[C@H](Cc2ccc(C(F)(F)F)cc2)NC(=O)[C@H](C(C)C)NC(=O)[C@@H]2CCCN2C(=O)[C@H](C(C)C)NC(=O)[C@@H](CCCNC(=N)N)NC(=O)[C@H](CC(=O)O)NC(=O)[C@H](Cc2ccc(O)cc2)NC(=O)CN(C)C(=O)[C@H](Cc2ccc(-c3ccccc3)cc2)NC(=O)[C@H](Cc2ccc(-c3ccccc3)cc2)NC(=O)[C@H](CN2CCOCC2)NC(=O)CSC[C@@H](C(=O)NCC(N)=O)NC1=O [Example 157] ({CH2CO}-[Ala(morpholin-4-yl)][Bip][Bip][Sar]YD[dR]VPV[Phe(4-CF3)]LCG-NH2; thioether N-13) | 200 to 2000 |
| CC(C)C[C@@H]1NC(=O)[C@H](Cc2csc3ccccc23)NC(=O)[C@H](C(C)C)NC(=O)[C@@H]2CCCN2C(=O)[C@H](C(C)C)NC(=O)[C@@H](CCCNC(=N)N)NC(=O)[C@H](CC(=O)O)NC(=O)[C@H](Cc2ccc(O)cc2)NC(=O)CN(C)C(=O)[C@H](Cc2ccc(-c3ccccc3)cc2)NC(=O)[C@H](Cc2ccc(-c3ccccc3)cc2)NC(=O)[C@H](CN2CCOCC2)NC(=O)CSC[C@@H](C(=O)NCC(N)=O)NC1=O [Example 158] ({CH2CO}-[Ala(morpholin-4-yl)][Bip][Bip][Sar]YD[dR]VPV[Bta]LCG-NH2; thioether N-13) | 200 to 2000 |
